Common to all, as to assay type: cell-based
For series [1], the system named is MCF-10A (non-tumour breast epithelial cells). Kind of series: MTT cytotoxicity assay, MCF-10A. The settings on record: read-out: IC50 MCF-10A. How it is done: (§1) HTB-26), MCF-7 (hormone-dependent breast cancer, ATCC: HTB−22), A549 (lung cancer, ATCC: CCL-185) and A2780cis (cisplatin-resistant ovarian cancer), and the non-tumour cell lines: MCF-10A (breast epithelial cells, ATCC: CRL-10317) and MRC-5 (lung fibroblast, ATCC: […] All the cells were maintained at 37°C in a humidified incubator with a 5% CO2 atmosphere. […] Then, the cells were treated with the compounds, solubilized in DMSO, at different concentrations and the plates were incubated for 48 h. To solubilize cisplatin, dimethylformamide (DMF) was used. The percentage of DMSO and DMF used in the assay was 0.5%. Afterwards, 50 μl of MTT (0.5 mg ml^−1 in phosphate-buffered saline) was added to each well of the plate and the plates were incubated for 4 h at 37°C. Then, the culture medium was removed, and the water-insoluble formazan crystals formed were solubilized by the addition of 100 μl isopropanol. The absorbance was recorded at 540 nm using a microplate reader. The half maximal inhibitory concentration (IC50) values were obtained using the GRAPHPAD PRISM software.
In general terms: Tetrazolium assays rely on reduction of a dye to a coloured formazan, in cell work by metabolically active cells.

The next series has as its system A549 (lung cancer). Kind of series: MTT cytotoxicity assay, A549. The settings on record: for IC50 of cisplatin fold higher than IC50 of the complex: A549 cells; for IC50: read-out: IC50 A549; for SI^4 = IC50 (MRC-5)/IC50 (A549): selectivity index, column head prints IS^4. As to the method:
as §1

In series [2] the test system is A2780cis (cisplatin-resistant ovarian cancer). The series is described as follows: MTT cytotoxicity assay, A2780cis. The settings on record: for IC50: read-out: IC50 A2780cis; for SI^3 = IC50 (MRC-5)/IC50 (A2780cis): selectivity index, column head prints IS^3. As to the method:
as §1

Series [3] relates to MDA-MB-231 (triple-negative breast cancer). The series is described as follows: MTT cytotoxicity assay, MDA-MB-231. The settings on record: for IC50: read-out: IC50 MDA-MB-231; for SI^1 = IC50 (MCF-10A)/IC50 (MDA-MB-231): selectivity index. As to the method:
as §1

Series [4] relates to MCF-7 (hormone-dependent breast cancer). Kind of series: MTT cytotoxicity assay, MCF-7. The settings on record: for IC50 fold lower than that of cisplatin: MCF-7 cells; for IC50: read-out: IC50 MCF-7; for SI^2 = IC50 (MCF-10A)/IC50 (MCF-7): selectivity index. How it is done:
as §1

Series [5] has as its system MRC-5 (non-tumour lung fibroblast). The series is described as follows: MTT cytotoxicity assay, MRC-5. The settings on record: read-out: IC50 MRC-5. How it is done: as §1
The test system of series [6] is MDA-MB-231, MCF-7, A549, A2780cis, MRC-5 and MCF-10A cell lines. Kind of series: MTT cytotoxicity assay, all cell lines studied. The settings on record: tested concentrations (<100 µM).
Protocol: The MDA-MB-231, A549 and MRC5 cell lines were cultured in Dulbecco’s modified eagle medium (DMEM) containing 10% fetal bovine serum (FBS), penicillin (100 IU ml^−1), streptomycin (100 mg ml^−1) and L-glutamine (2 mM). The MCF-7 and A2780cis cells were grown in the Roswell Park Memorial Institute (RPMI) containing 10% FBS, penicillin (100 IU ml^−1), streptomycin (100 mg ml^−1) and L-glutamine (2 mM). The MCF-10A cells were grown in DMEM nutrient mixture F-12 (DMEM F-12) containing 5% fetal horse serum, epidermal growth factor (EGF) (20 ng ml^−1), hydrocortisone (0.5 µg ml^−1), insulin (0.01 mg ml^−1), 1% penicillin and 1% streptomycin. All the cells were maintained at 37°C in a humidified incubator with a 5% CO2 atmosphere.
The cytotoxic activities of the free ligands and complexes were analysed by MTT (3-[4,5-dimethylthiazol-2-yl]-2,5 diphenyl tetrazolium bromide) assay [32]. For that, cells were plated in 96-well plates (1.5 × 10^4 cells well^−1) and kept for 24 h in an incubator with 5% CO2 and 37°C for adherence. Then, the cells were treated with the compounds, solubilized in DMSO, at different concentrations and the plates were incubated for 48 h. […] The percentage of DMSO and DMF used in the assay was 0.5%. […] The absorbance was recorded at 540 nm using a microplate reader.
Where [7] appears, read: Homo sapiens, MCF-10A, MTT, 48 h incubation.
Where [8] appears, read: Homo sapiens, A549, MTT, 48 h incubation.
The mark [9] stands for this setting: Homo sapiens, MDA-MB-231, MTT, 48 h incubation.
[10] abbreviates: Homo sapiens, MCF7, MTT, 48 h incubation.
Where [11] appears, read: Homo sapiens, MRC5, MTT, 48 h incubation.

Read-outs that look alike come from different tables or passages of the source.

For orientation: IC50 means the concentration that gives 50% inhibition. Turning to `CC(=O)C=C(C)[O-].F[P-](F)(F)(F)(F)F.[Ru+2].c1ccc(-c2ccccn2)nc1.c1ccc(P(c2ccccc2)c2ccccc2)cc1.c1ccc(P(c2ccccc2)c2ccccc2)cc1` [Ru1, [Ru(acac)(PPh3)2(bipy)]PF6], the IC50 in series [1] (MTT, 48 h incubation) came to 1.7 µM; with A549 (lung cancer) (MTT, 48 h incubation), 1.43 µM; in series [2] (MTT, 48 h incubation), 590 nM; in series [3] (MTT, 48 h incubation), 2.09 ± 0.46 µM; in series [4] (MTT, 48 h incubation), 1.86 µM; in series [5] (MTT, 48 h incubation) it was 4.92 µM. Further, the “IC50 of cisplatin fold higher than IC50 of the complex” value in the series on A549 (lung cancer) is 8 fold. The “SI^4 = IC50 (MRC-5)/IC50 (A549)” value in the series with A549 (lung cancer) came to 3.44. Besides, the “SI^3 = IC50 (MRC-5)/IC50 (A2780cis)” value in series [2] is on record as 8.34. For the same molecule, the “SI^1 = IC50 (MCF-10A)/IC50 (MDA-MB-231)” value in series [3] amounted to 0.81. Further, the “IC50 fold lower than that of cisplatin” value in series [4] stood at 7.5 fold. Further, the “SI^2 = IC50 (MCF-10A)/IC50 (MCF-7)” value in series [4] is on record as 0.91.
Take `F[P-](F)(F)(F)(F)F.O=C(C=C([O-])c1ccccc1)c1ccccc1.[Ru+2].c1ccc(-c2ccccn2)nc1.c1ccc(P(c2ccccc2)c2ccccc2)cc1.c1ccc(P(c2ccccc2)c2ccccc2)cc1` [Ru2, [Ru(dbm)(PPh3)2(bipy)]PF6]: the IC50 was determined as 1.71 µM in series [1] (MTT, 48 h incubation); 1.06 µM with A549 (lung cancer) (MTT, 48 h incubation); 390 nM in series [2] (MTT, 48 h incubation); 3.37 µM in series [3] (MTT, 48 h incubation); 1.74 µM in series [4] (MTT, 48 h incubation); 4.85 µM in series [5] (MTT, 48 h incubation). Further, in the series with A549 (lung cancer), the “IC50 of cisplatin fold higher than IC50 of the complex” value is reported as 11 fold. Also, the “SI^4 = IC50 (MRC-5)/IC50 (A549)” value with A549 (lung cancer) is listed as 4.57. Besides, the “SI^3 = IC50 (MRC-5)/IC50 (A2780cis)” value in series [2] was determined as 12.43. Also, the “SI^1 = IC50 (MCF-10A)/IC50 (MDA-MB-231)” value in series [3] was found to be 0.50. The “IC50 fold lower than that of cisplatin” value in series [4] worked out at 8.0 fold. Also, in series [4], the “SI^2 = IC50 (MCF-10A)/IC50 (MCF-7)” value is given as 0.98.
`COc1cc(C=CC(=O)C=C([O-])C=Cc2ccc(O)c(OC)c2)ccc1O.F[P-](F)(F)(F)(F)F.[Ru+2].c1ccc(-c2ccccn2)nc1.c1ccc(P(c2ccccc2)c2ccccc2)cc1.c1ccc(P(c2ccccc2)c2ccccc2)cc1` [Ru3, [Ru(cur)(PPh3)2(bipy)]PF6]: the IC50 in series [1] (MTT, 48 h incubation) is 6.41 µM; with A549 (lung cancer) (MTT, 48 h incubation), more than 30 µM; in series [2] (MTT, 48 h incubation) it was 820 nM; in series [3] (MTT, 48 h incubation) it was 6.8 µM; in series [5] (MTT, 48 h incubation), more than 30 µM. For the same molecule, the “SI^1 = IC50 (MCF-10A)/IC50 (MDA-MB-231)” value in series [3] is reported as 0.94. Further, the “SI^2 = IC50 (MCF-10A)/IC50 (MCF-7)” value in series [4] amounted to 0.45.
Regarding `CC(=O)CC(C)=O` [acac, acetylacetonate], the IC50 in series [1] (setting [7]) is more than 100 µM; in the series with A549 (lung cancer) (setting [8]), more than 100 µM; in series [2] (A2780cis, MTT, 48 h incubation), more than 100000 nM; in series [3] (setting [9]), more than 100 µM; in series [4] (setting [10]), more than 100 µM; in series [5] (setting [11]), more than 100 µM. For the same molecule, the “cytotoxic activity (in words)” value in series [6] is “did not exhibit activity”.
For the molecule `N.N.[Cl][Pt][Cl]` [cisplatin, cis-diamminedichloridoplatinum(II)], the IC50 was 29.4 µM in series [1] (MTT, 48 h incubation); 10.2 µM in series [3] (MTT, 48 h incubation); 14 µM in series [4] (MTT, 48 h incubation).
Take `COc1cc(/C=C/C(=O)CC(=O)/C=C/c2ccc(O)c(OC)c2)ccc1O` [cur, curcumin]: the IC50 in series [1] (setting [7]) came to 16.9 µM; in the series on A549 (lung cancer) (setting [8]), 33.3 µM; in series [2] (A2780cis, MTT, 48 h incubation), 4020 nM; in series [3] (setting [9]), 29.7 µM; in series [4] (setting [10]), 20 µM; in series [5] (setting [11]), 8.99 µM. Moreover, the “SI^4 = IC50 (MRC-5)/IC50 (A549)” value with A549 (lung cancer) is on record as 0.27. Also, in series [2], the “SI^3 = IC50 (MRC-5)/IC50 (A2780cis)” value was found to be 2.24. Also, the “SI^1 = IC50 (MCF-10A)/IC50 (MDA-MB-231)” value in series [3] turned out to be 0.57. The “SI^2 = IC50 (MCF-10A)/IC50 (MCF-7)” value in series [4] stood at 0.84.
Take `O=C(CC(=O)c1ccccc1)c1ccccc1` [dbm, dibenzoylmethane]: the IC50 in series [1] (Homo sapiens, MCF-10A, 48 h) is 50.7 µM; in the series with A549 (lung cancer) (Homo sapiens, A549, 48 h), 23.1 µM; in series [2] (A2780cis, 48 h), 62600 nM; in series [3] (Homo sapiens, MDA-MB-231, 48 h), 59.6 µM; in series [4] (Homo sapiens, MCF7, 48 h), 11.7 µM; in series [5] (Homo sapiens, MRC5, 48 h) it was 9.54 µM. In addition, in the series with A549 (lung cancer), the “SI^4 = IC50 (MRC-5)/IC50 (A549)” value was determined as 0.41. Further, in series [2], the “SI^3 = IC50 (MRC-5)/IC50 (A2780cis)” value was determined as 0.15. Also, the “SI^1 = IC50 (MCF-10A)/IC50 (MDA-MB-231)” value in series [3] stood at 0.85. Besides, the “SI^2 = IC50 (MCF-10A)/IC50 (MCF-7)” value in series [4] is 4.34.

Source of the values: PMC11289651, “Ruthenium(II) complexes of curcumin and β-diketone derivatives: effect of structural modifications on their cytotoxicity” (Royal Society Open Science, 2024).
